Publication PMC7993375, “Discovery of novel quinoline-based analogues of combretastatin A-4 as tubulin polymerisation inhibitors with apoptosis inducing activity and potent anticancer effect” (Journal of Enzyme Inhibition and Medicinal Chemistry, 2021)

Assays:
Type in all cases: cell-based, human
[1] = system: MCF-7, HL-60, HCT-116 and HeLa; test: MTT cell viability assay, statements over all four cancer cell lines; conditions: Homo sapiens
Procedure: The four human tumour cell lines MCF-7, HCT-116, HL-60 and HeLa used in this study were obtained from the VACSERA (Giza, Egypt) cell culture unit that were originally acquired from ATCC (Manassas, VA, USA). All the human tumour cell lines were cultured in Dulbecco’s Modified Eagle’s Medium (DMEM) with 10% foetal bovine serum, 2 mM L-glutamine and 100 µg/mL penicillin/streptomycin. Cells were maintained at 37 °C in 5% CO2 in a humidified incubator. All cells were sub-cultured 3 times/week by trypsinisation using TrypLE Express (1X).
The quinoline compounds were evaluated for antiproliferative effect using the MTT viability assay of four cancer cell lines (MCF-7, HCT-116, HL-60 and HeLa) and normal breast cells MCF-10A to calculate the relative IC50 values for each compound. Cells were seeded in triplicate in 96-well plates at a density of 10 × 10^3 cells/ml in a total volume of 200 µl per well. 0.1% of DMSO was used as a vehicle control. Following, the cells were treated with 2 µl test compound (from stock solutions in ethanol) to furnish the concentration range of study, 1 nM to 50 µM, and re-incubated for a further 72 h. The culture medium was then removed, and the cells washed with 100 µL phosphate buffered saline (PBS) and 50 µL MTT added, to reach a final concentration of 1 mg/mL. Cells were incubated for 2 h in darkness at 37 °C. Solubilisation was begun through the addition of […] DMSO, and the cells maintained at room temperature in darkness for 20 min to ensure thorough colour diffusion before reading the absorbance. Plates were incubated for 72 h at 37 °C + 5% CO2. The MTT (5 mg/mL in PBS) was added and incubated for another 4 h, and the optical density was detected with a microplate reader at 570 nm. Results were expressed as percentage viability relative to vehicle control (100%). Dose response curves were plotted and IC50 values (concentration of drug resulting in 50% reduction in cell survival) were obtained using the commercial software package Prism (GraphPad Software, Inc., La Jolla, CA, USA). All the experiments were repeated in at least three independent experiments.

[2] = system: MCF-7 cells; test: Wound healing assay
Procedure: MCF-7 were grown in 6-well plates for 24 h, and scratches were made using pipette tip and washed with PBS to remove non-adherent cell debris. Subsequently, the cells were treated with different concentrations of 12c for 24 h. The migrations across the wound area were photographed under a phase contrast microscopy.

[3] = system: MCF-7 cells; test: Mitochondrial membrane potential (DiOC2(3), annexin V, flow cytometry); conditions: 24 h, untreated 1.1%
Procedure: Mitochondrial membrane potential (Δψmt) was measured by flow cytometry with DiOC2(3) staining and additional labelling with an annexin V conjugate. After treatment with compound 12c (50 and 250 nM) and CA-4 (50 nM), cells were stained with DiOC2(3) dye for 30 min in the incubator, then harvested and washed with PBS. DiOC2(3)-stained cells were resuspended with 1X annexin binding buffer, followed by addition of annexin V conjugate and incubated at 37 °C for 15 min. The data from the flow cytometry were analysed by Cell Quest software. Production of intracellular reactive oxygen species (ROS) was measured using 2,7–dichlorofluorescin diacetate (H2-DCFDA) dye. MCF-7 cells were seeded and treated either with vehicle (0.1% DMSO) or with compound 12c (50 and 250 nM) or CA-4 (50 nM) for 6, 12 and 24 h. H2O2 was used as a positive control. The amount of ROS generated was estimated after 2 h of selected compound treatment. The cells were collected by centrifugation and washed twice with PBS. Cells were then incubated with DCFDA dye (25 µM) in dark at 37 °C for 1 h. Fluorescence spectra (510 − 600 nm) were monitored using an excitation wavelength of 488 nm[53]^,[54].

COc1cc(C2=NC(=Cc3cc4ccc(C)cc4nc3OC)C(=O)O2)cc(OC)c1OC [Compound 12c, 4-[(2-Methoxy-7-methylquinolin-3-yl)methylene]-2–(3,4,5-trimethoxyphenyl) oxazol-5(4H)-one]
IC50 [1]: 10 to 42 nM | MCF-7 cell migration into wound area [2]: significantly inhibited in a dose-dependent manner | percentage of apoptotic cells with decrease in MMP ([3]; 50 nM): 24.9% | percentage of apoptotic cells with decrease in MMP ([3]; 250 nM): 31.3%
